Results on eleven compounds are retold here after ChEMBL document CHEMBL1123646, “2-Phenylpyrroles as conformationally restricted benzamide analogues. A new class of potential antipsychotics. 1” (J Med Chem, 1987).

The subject of assay [1] is Mus musculus. Briefly: Antagonism of apomorphine-induced climbing in mice when administered intraperitoneally 30 min prior to apomorphine (1 mg/kg). The note with it: ip.
The target of assay [2] is D(2) dopamine receptor (Rattus norvegicus, UniProt P61169). Briefly: Ability to inhibit the [3H]spiperone binding to striatum Dopamine receptor D2 was determined in rat. Format: tissue-based.
The target of assay [3] is T1, Adrenergic receptor alpha-1 (Rattus norvegicus, UniProt P15823+P23944+P43140).
T1 sequence (P15823 whole entry): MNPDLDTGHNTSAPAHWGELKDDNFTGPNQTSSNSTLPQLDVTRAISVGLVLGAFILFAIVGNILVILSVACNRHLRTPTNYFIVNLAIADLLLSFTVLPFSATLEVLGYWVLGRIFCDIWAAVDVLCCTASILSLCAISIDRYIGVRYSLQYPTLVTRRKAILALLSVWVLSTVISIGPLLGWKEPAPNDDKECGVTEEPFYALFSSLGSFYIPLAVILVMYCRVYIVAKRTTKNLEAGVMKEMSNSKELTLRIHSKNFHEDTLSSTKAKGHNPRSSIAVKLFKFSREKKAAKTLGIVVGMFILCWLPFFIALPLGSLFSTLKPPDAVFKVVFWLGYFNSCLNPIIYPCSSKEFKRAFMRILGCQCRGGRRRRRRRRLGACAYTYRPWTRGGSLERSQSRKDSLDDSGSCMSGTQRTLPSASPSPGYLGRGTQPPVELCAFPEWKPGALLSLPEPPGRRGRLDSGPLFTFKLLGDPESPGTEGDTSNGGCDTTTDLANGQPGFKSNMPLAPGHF
T1 sequence (P23944 whole entry): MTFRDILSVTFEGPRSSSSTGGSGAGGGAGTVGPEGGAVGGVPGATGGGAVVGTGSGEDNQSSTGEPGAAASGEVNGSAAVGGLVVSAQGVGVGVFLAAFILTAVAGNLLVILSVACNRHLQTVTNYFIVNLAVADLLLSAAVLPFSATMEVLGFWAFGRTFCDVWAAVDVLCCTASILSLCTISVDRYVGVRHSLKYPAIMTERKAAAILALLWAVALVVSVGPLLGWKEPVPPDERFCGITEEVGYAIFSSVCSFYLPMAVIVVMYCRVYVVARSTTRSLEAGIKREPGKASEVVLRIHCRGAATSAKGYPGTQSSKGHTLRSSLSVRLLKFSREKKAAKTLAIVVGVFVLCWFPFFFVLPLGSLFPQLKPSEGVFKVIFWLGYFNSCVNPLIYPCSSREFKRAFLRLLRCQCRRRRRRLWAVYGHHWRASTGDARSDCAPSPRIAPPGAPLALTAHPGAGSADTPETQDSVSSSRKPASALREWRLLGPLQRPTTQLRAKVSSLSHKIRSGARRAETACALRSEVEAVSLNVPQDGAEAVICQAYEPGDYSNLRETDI
T1 sequence (P43140 whole entry): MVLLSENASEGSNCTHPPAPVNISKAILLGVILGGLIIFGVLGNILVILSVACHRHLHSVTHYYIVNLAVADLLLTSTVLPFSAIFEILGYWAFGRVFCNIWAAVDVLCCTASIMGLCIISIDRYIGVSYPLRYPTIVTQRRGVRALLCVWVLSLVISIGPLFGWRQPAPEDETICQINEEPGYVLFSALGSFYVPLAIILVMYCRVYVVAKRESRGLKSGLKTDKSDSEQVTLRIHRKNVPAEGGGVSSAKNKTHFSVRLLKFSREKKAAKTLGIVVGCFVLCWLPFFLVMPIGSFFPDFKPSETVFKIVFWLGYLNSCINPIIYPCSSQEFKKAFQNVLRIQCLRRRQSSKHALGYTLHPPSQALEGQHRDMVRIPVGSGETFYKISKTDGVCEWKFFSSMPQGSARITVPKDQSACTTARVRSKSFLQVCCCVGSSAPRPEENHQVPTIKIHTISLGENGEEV
The assay is described as follows: Ability to inhibit [3H]WB-4101 binding to alpha-1 adrenergic receptor was determined in rat.

Assay [4] has as its system Rattus norvegicus. The assay is described as follows: Suppression of conditioned avoidance behavior in rats when administered perorally 60 min before measurement. The settings on record: po. Format: functional.
The test system of assay [5] is Mus musculus. The assay is described as follows: Antagonism of apomorphine-induced climbing in mice when administered perorally 60 min prior to apomorphine (1 mg/kg). The assay is classed as functional. The settings on record: po.
Assay [6] relates to Rattus norvegicus. Briefly: Suppression of conditioned avoidance behavior in rats when administered intraperitoneally 30 min before measurement. The note with it: ip.
The test system of assay [7] is Rattus norvegicus. The assay is described as follows: Induction of catalepsy in rats when administered intraperitoneally 4 hr prior to measurement to groups of 9 animals. value is based on at least three dose levels(40% of animals showed catalepsy). The assay is classed as functional. The settings on record: ip.
The target of assay [8] is Serotonin 2 (5-HT2) receptor (Rattus norvegicus, UniProt P30994+P08909+P14842). Briefly: Ability to inhibit [3H]spiperone binding to 5-hydroxytryptamine 2 receptor determined in rat.

Each structure is given as a SMILES string.

Chain of D(2) dopamine receptor (P61169 whole entry): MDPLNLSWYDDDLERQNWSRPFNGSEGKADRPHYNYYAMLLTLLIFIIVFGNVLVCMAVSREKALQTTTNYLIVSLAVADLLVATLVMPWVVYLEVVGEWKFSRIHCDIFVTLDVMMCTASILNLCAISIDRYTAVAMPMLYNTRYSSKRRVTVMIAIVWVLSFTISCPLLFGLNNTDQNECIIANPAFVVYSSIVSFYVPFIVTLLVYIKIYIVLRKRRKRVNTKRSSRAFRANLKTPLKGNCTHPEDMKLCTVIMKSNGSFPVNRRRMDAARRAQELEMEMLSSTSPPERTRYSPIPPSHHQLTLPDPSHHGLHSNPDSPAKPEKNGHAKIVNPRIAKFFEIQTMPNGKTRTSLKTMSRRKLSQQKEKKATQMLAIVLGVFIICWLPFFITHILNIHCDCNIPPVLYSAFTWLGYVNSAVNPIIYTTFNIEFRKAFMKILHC

A word on the ED50: it is the dose at which the effect has come halfway, by size or by number of responders. The low end stands for an effect at a small dose, the high end for a need for a large dose. As usually defined, the Ki is a measure of affinity in units of concentration, obtained from inhibition or displacement. A low value points to tighter binding. For `O=C(NCCN1CCC(O)(c2ccc(Cl)cc2)CC1)c1ccc(F)cc1`, the ED50 in assay [1] was 9 mg/kg; in assay [4], greater than 50 mg/kg; in assay [5] it was 20 mg/kg. The results for the Ki in assay [2] and in assay [3] were 480 nM and 250 nM, respectively.
With `CCN1CCCC1c1ccc(-c2cc(S(=O)(=O)CC)ccc2OC)[nH]1` (configuration not stated), the ED50 in assay [1] amounted to 4.7 mg/kg; in assay [4], 35 mg/kg; in assay [5], 11.4 mg/kg. In addition, the affinity in assay [2] corresponds to a Ki of 29 nM.
Take `COc1ccccc1N1CCN(CCCC(=O)c2ccc(F)cc2)CC1` [FLUANISONE]: the ED50 is 0.4 mg/kg in assay [1]; 2.2 mg/kg in assay [6]; no less than 22 mg/kg in assay [7]; greater than 50 mg/kg in assay [4]; 25 mg/kg in assay [5]. Further, the Ki in assay [2] amounted to 2.9 nM; in assay [3], 0.87 nM; in assay [8], 52 nM.
For `CCN1CCC[C@H]1CNC(=O)c1cc(S(N)(=O)=O)ccc1OC` [LEVOSULPIRIDE], the ED50 in assay [1] is greater than 21 mg/kg; in assay [6], greater than 100 mg/kg; in assay [4], greater than 220 mg/kg; in assay [5], 195 mg/kg. The Ki in assay [3] is given as 15000 nM.
For `CCN1CCC[C@H]1CNC(=O)c1cc(S(=O)(=O)CC)ccc1OC`, the ED50 in assay [1] was greater than 10 mg/kg; in assay [4], 70 mg/kg; in assay [5], 36 mg/kg. Besides, the results for the Ki in assay [2], in assay [3] and in assay [8] were 9.3 nM, 1100 nM and 54000 nM, respectively.
Take `COc1ccccc1N1CCN(Cc2ccc(-c3ccc(F)cc3)[nH]2)CC1`: the ED50 was 0.2 mg/kg in assay [1]; 2.3 mg/kg in assay [6]; greater than 24 mg/kg in assay [7]; 8.5 mg/kg in assay [4]; 0.9 mg/kg in assay [5]. Also, the results for the inhibition constant Ki in assay [2], in assay [3] and in assay [8] were 0.91 nM, 57 nM and 310 nM, respectively.
Regarding `CCS(=O)(=O)c1ccc(OC)c(-c2ccc(CN3CCN(c4ccccc4OC)CC3)[nH]2)c1`, the ED50 was greater than 20 mg/kg in assay [1], greater than 20 mg/kg in assay [6], greater than 50 mg/kg in assay [4] and 35 mg/kg in assay [5]. Besides, in assay [2], the Ki turned out to be 7.3 nM.
For `COc1ccccc1N1CCN(CCNC(=O)c2ccc(F)cc2)CC1`, the ED50 in assay [1] was 0.4 mg/kg; in assay [6], 0.74 mg/kg; in assay [7], greater than 7.4 mg/kg; in assay [4], 30 mg/kg; in assay [5] it was 15 mg/kg. Further, the Ki turned out to be 9 nM in assay [3] and 700 nM in assay [8].
`CCS(=O)(=O)c1ccc(OC)c(-c2ccc(CN3CCC(O)(c4ccc(Cl)cc4)CC3)[nH]2)c1`: the ED50 is greater than 20 mg/kg in assay [1] and greater than 100 mg/kg in assay [5]. This compound yielded a Ki in assay [2] of 150 nM.
Take `OC1(c2ccc(Cl)cc2)CCN(Cc2ccc(-c3ccc(F)cc3)[nH]2)CC1`: the ED50 in assay [1] is 25 mg/kg; in assay [6], greater than 20 mg/kg; in assay [4], greater than 50 mg/kg; in assay [5], 51 mg/kg. Besides, the Ki in assay [2] is 1100 nM; in assay [3], 1600 nM; in assay [8] it was 9300 nM.
Take `O=C(CCCN1CCC(O)(c2ccc(Cl)cc2)CC1)c1ccc(F)cc1` [HALOPERIDOL]: the ED50 worked out at 0.08 mg/kg in assay [1], 0.45 mg/kg in assay [6], 2 mg/kg in assay [7] and 0.8 mg/kg in assay [4].
